We go through eight compounds from patent US7863408B2, “Body fluid compatible and biocompatible resin” (Asahi Kasei Kabushiki Kaisha, priority 2002, dated 2011).

Series [1] in a line: Solubility in physiological saline. It counts as physicochemical. As to conditions: for dissolution of 10 mg compound in 0.1 ml of physiological saline / dissolution ratio in terms of camptothecin: Example 162; for dissolution ratio in terms of camptothecin: physiological saline, 10 mg compound in 0.1 ml. The method, then: 10 mg of each of compounds (203) and (206) was precisely weighed and individually added to 0.1 ml of physiological saline.

Another series deals with Colon 26 tumor cells. Put plainly: Antitumor assay, Colon 26. Particulars: Balb/C mice, 50 mg/kg in terms of paclitaxel. It counts as in vivo, mouse. The method, then: Further, a control solution was prepared by dissolving paclitaxel as such in a mixture of ethanol, Cremophore EL (manufactured and sold by Sigma, U.S.A.) and physiological saline. Thus, two types of solutions, namely, a test sample solution and a control solution were obtained. Six female Balb/C mice (six weeks old) were divided into two groups, each consisting of three mice, and subsequently, a 4% suspension of Colon 26 tumor cells was intradermally transplanted to the flank of each of the mice. […] Each mouse of the other group of the two groups received administration of the control solution, wherein the control solution was administered in the same manner as in the case of the administration of the test sample solution (i.e., the dose of paclitaxel was 50 mg/kg), thereby obtaining a control group of mice. Separately, a group consisting of five female Balb/C mice (six weeks old), which were transplanted with Colon 26 tumor cells in the same manner as mentioned above, was provided. Each of the mice of such group received the administration of only physiological saline in the same manner as in the case of the administration of the test sample solution, to thereby obtain a non-treated group of mice. Each of the above-mentioned administration of the test sample solution, control solution and physiological saline was performed every 4 days, 7 times in total in the above-mentioned manner.
Evaluation was made of the antitumor activity in terms of the change (with the lapse of time) of the average tumor volume (%). The tumor volume was determined as follows. The major and minor diameters (a and b, respectively) (each in mm) of the tumor were externally measured, and the tumor volume (V) was obtained according to the following formula.
Further, a control solution was prepared by dissolving paclitaxel as such in a mixture of ethanol, Cremophore EL (manufactured and sold by Sigma, U.S.A.) and physiological saline. Thus, five types of solutions, namely, four types of test sample solutions and one control solution were obtained. Twenty-five female Balb/C mice (six weeks old) were divided into five groups, each consisting of five mice, and subsequently, a 4% suspension of Colon 26 tumor cells was intradermally transplanted to the flank of each of the mice. After two days from the transplantation, four groups of the five groups of mice respectively received the administration of the four test sample solutions obtained above, wherein the dose of the compound was 50 mg/kg in terms of paclitaxel. Each mouse of the other group of the five groups received administration of the control solution, wherein the control solution was administered in the same manner as in the case of the administration of the test sample solution (i.e., the dose of paclitaxel was 50 mg/kg), thereby obtaining a control group of mice. Separately, a group consisting of nine female Balb/C mice (six weeks old), which were transplanted with Colon 26 tumor cells in the same manner as mentioned above, was provided. Each of the mice of such group received the administration of only physiological saline in the same manner as in the case of the administration of the test sample solution, to thereby obtain a non-treated group of mice. Each of the above-mentioned administration of the test sample solution, control solution and physiological saline was performed every 7 days, 4 times in total in the above mentioned manner.
Evaluation was made of the antitumor activity in terms of the change (with the lapse of time) of the average tumor volume (%). The tumor volume was determined as follows. The major and minor diameters (a and b, respectively) (each in mm) of the tumor were externally measured, and the tumor volume was obtained according to the following formula.

The next series deals with B16 melanoma cells. As to conditions: Example 149; C57BL/6 mice; 50 mg/kg in terms of paclitaxel, tail-vein injection; six days after administration.
Where [2] appears, read: Example 151, every 7 days, 4 times.

Protocol for B16 melanoma cells: Further, a control solution was prepared by dissolving paclitaxel as such in a mixture of ethanol, Cremophore EL (manufactured and sold by Sigma, U.S.A.) and physiological saline. Thus, two types of solutions, namely, a test sample solution and a control solution were obtained. Twenty-one female C57BL/6 mice (six weeks old) were divided into three groups, each consisting of seven mice, and subsequently, B16 melanoma cells were intradermally transplanted to the groin of each of the mice (5×10^6 cells per mouse). […] Each mouse of the other one group of the three groups received the administration of the control solution, wherein the control solution was administered in substantially the same manner as in the above-mentioned administration of the test sample solution, except that the dose of paclitaxel was 50 mg/kg, thereby obtaining a control group of mice. Separately, a group consisting of thirteen female C57BL/6 mice (six weeks old), which were transplanted with B16 melanoma cells in the same manner as mentioned above, was provided. Each of the mice of such group received the administration of physiological saline, to thereby obtain a non-treated group of mice.

Turning to “carboxymethylated polyether-20-Gly-Gly-Phe-Gly-camptothecin [(206)]”, in series [1], the “dissolution of 10 mg compound in 0.1 ml of physiological saline” value is given as “completely dissolved” and the “dissolution ratio in terms of camptothecin” value was determined as 4.5 mg/mL. Consider `CC(=O)O[C@H]1C(=O)[C@@]2(C)[C@H]([C@H](OC(=O)c3ccccc3)[C@]3(O)C[C@H](OC(=O)[C@H](O)[C@@H](NC(=O)c4ccccc4)c4ccccc4)C(C)=C1C3(C)C)[C@]1(OC(C)=O)CO[C@@H]1C[C@@H]2O` [paclitaxel, reference compound], for which, in the series on Colon 26 tumor cells (setting [2]), the “order of the magnitudes of the antitumor activity” value (“order” for short) is given as “(177)/(179)>(181)>(183)/paclitaxel”. Besides, the “dissolution of 1 mg in 10 ml of physiological saline” value in series [1] (Example 145) is “not able to be completely dissolved”.

As to “carboxymethylated polyether-20-Gly-camptothecin [Compound (203)]”, in series [1], the “dissolution of 10 mg compound in 0.1 ml of physiological saline” value is reported as “completely dissolved” and the “dissolution ratio in terms of camptothecin” value was 3.5 mg/mL. As to “carboxymethylated polyether-2′-Ile-paclitaxel [(183)]”, the “order” value in the series on Colon 26 tumor cells (setting [2]) is recorded as “(177)/(179)>(181)>(183)/paclitaxel”. “carboxymethylated polyether-2′-Gly-Gly-Phe-Gly-paclitaxel [Compound (197)]”: the “antitumor activity (relative average tumor volume) compared to paclitaxel as such” value with B16 melanoma cells is “significantly excellent”. Moreover, the “antitumor activity (average tumor volume with time) compared to paclitaxel as such” value in the series on Colon 26 tumor cells (Example 150, every 4 days, 7 times) is listed as “significantly excellent”.

Consider “carboxymethylated polyether-2′-Gly-paclitaxel [Compound (177)]”, for which, in the series with Colon 26 tumor cells (setting [2]), the “antitumor activity (average tumor volume with time) compared to paclitaxel as such” value is on record as “significantly excellent” and the “order” value was “(177)/(179)>(181)>(183)/paclitaxel”. Consider “carboxymethylated polyether-2′-Leu-paclitaxel [(181)]”, for which, in the series on Colon 26 tumor cells (setting [2]), the “order” value was “(177)/(179)>(181)>(183)/paclitaxel”. With “carboxymethylated polyether-2′-Ala-paclitaxel [(179)]”, in the series with Colon 26 tumor cells (setting [2]), the “antitumor activity (average tumor volume with time) compared to paclitaxel as such” value is on record as “significantly excellent” and the “order” value is listed as “(177)/(179)>(181)>(183)/paclitaxel”.
